Literature values as cited in patent publication US20100227030A1, “METHOD FOR THE CONSERVATION OF A PLANT MATERIAL” (priority 2007, published 2010).

Settings: at 20° C

- Maximal solubility: 68.9 g/100 g water
Structure (SMILES): OC[C@H]1O[C@H](O[C@H]2O[C@H](CO)[C@@H](O)[C@H](O)[C@H]2O)[C@H](O)[C@@H](O)[C@@H]1O [trehalose]
